The conditions of the data set: 101.33 kPa, Liquid; for viscosity: Capillary tube (Ostwald / Ubbelohde) method; for mass density: Pycnometric method.

± gives the expanded uncertainty stated by the source.

In the case of `CCCC[n+]1ccc(C)cc1.F[B-](F)(F)F` [1-butyl-4-methylpyridinium tetrafluoroborate], the viscosity reads like this: (298.15 K) 205.5 ± 21 mPa·s; (323.15 K) 52.7 ± 5.3 mPa·s; (348.15 K) 21.3 ± 2.1 mPa·s; (373.15 K) 10.5 ± 1.1 mPa·s. Further, the mass density by setting is: (298.15 K) 1185 ± 2 kg/m3; (323.15 K) 1171 ± 2 kg/m3; (348.15 K) 1154 ± 2 kg/m3; (373.15 K) 1144 ± 2 kg/m3.

In the case of `CCCCn1cc[n+](C)c1.N#CN=C=[N-]` [1-butyl-3-methylimidazolium dicyanamide], the viscosity was determined as 30.1 ± 3.2 mPa·s (298.15 K), 13.5 ± 1.6 mPa·s (323.15 K), 7.7 ± 1.1 mPa·s (348.15 K) and 4.9 ± 0.9 mPa·s (373.15 K). The mass density by setting is: (298.15 K) 1065 ± 3 kg/m3; (323.15 K) 1050 ± 3 kg/m3; (348.15 K) 1036 ± 3 kg/m3; (373.15 K) 1026 ± 3 kg/m3.

`CCCCCCCCn1cc[n+](C)c1.O=S(=O)([O-])C(F)(F)C(F)F`: the viscosity (298.15 K) is 279.4 ± 29 mPa·s, the viscosity (323.15 K) amounted to 79.8 ± 8.1 mPa·s, the viscosity (348.15 K) is on record as 32.5 ± 3.3 mPa·s and the viscosity (373.15 K) stood at 15.3 ± 1.5 mPa·s. In addition, the mass density is on record as 1233 ± 2 kg/m3 (298.15 K), 1215 ± 2 kg/m3 (323.15 K), 1196 ± 2 kg/m3 (348.15 K) and 1176 ± 2 kg/m3 (373.15 K).

As usually defined, the viscosity is the resistance of a fluid to flow. One may read the mass density as mass per unit of volume.

Values taken from the NIST ThermoML archive (doi:10.1016/j.fluid.2011.11.030).
